These results are taken from US9447103B2, “Inauhzin analogues that induce P53, inhibit cell growth, and have antitumor activity” (Indiana University Research and Technology Corp., priority 2012, dated 2016).

Structures are written as SMILES. Where two headings read alike, the source gives them in different places.

The test system of one test is p53. Description: p53 induction by immunoblotting (IB), H460 and/or HCT116^+/+ cells (line not singled out). The test is classed as cell-based, human. The conditions noted are these: 18 hrs. The source says: Initial Inauhzin analogs were purchased and tested the activity on H460 and HCT116^p53+/+ by IB.
This study also investigated the activity of the compounds in cell-based assays for their ability to induce p53 levels in p53 containing human colon cancer HCT116^+/+ cells and/or human lung cancer H460 cells using immunoblotting (IB) (FIG. 1 and FIG. 8). […] Both triazino[5,6-b]indol (G1) and phenothiazine (G2) are essential functional groups for p53 induction. […] Therefore, further attention was focused on the structural modifications of the pharmacologically active core: triazino[5,6-b]indol or phenothiazine. Modifications included extension of carbon chain length on R1 (14) (FIG. 2B), the substitution on the phenothiazine ring (G2) (6-13) (FIG. 2A) or on the triazino[5,6-b]indol ring (G1) (15-36) (FIGS. 2B-2D).
(§1) Cell Culture and Immunoblotting Analysis.

Another test has as its system HCT116^+/+. Briefly: Cell viability assay (3-day WST-8), HCT116^+/+. The test is classed as cell-based, human. Conditions: for fold higher potency than INZ in growth inhibition: versus INZ; for EC90 / EC50: Homo sapiens, HCT-116.
The subject of test [1] is H460 orthotopic lung tumors. Description: H460 orthotopic lung tumor model, bioluminescent imaging. In kind it is in vivo, SCID mice. The conditions noted are these: i.p. 50 mg/kg once a day for 3 weeks, H460-Luc cells in pleural space. On the procedure:
FIGS. 13A and 13B show the effects of compound 37 on the growth of H460 orthotopic lung tumors. Each mouse was dosed once a day via i.p. with either vehicle or compound 37 (50 mg/kg) for 3 weeks starting 4 days after implantation of 5×10^5 H460-Luc tumor cells into the pleural space of the SCID mice. […] Each value is a mean of five animals ±SD. FIG. 13B is bioluminescent imaging (BLI) of orthotopic lung tumors in SCID mice.
The effects of compound 8 on the growth of H460 orthotopic lung tumors. Each mouse was dosed once a day via i.p. with either vehicle or 14 (50 mg/kg) for 3 weeks starting 4 days after implantation of 5×10^5 H460-Luc tumor cells into the pleural space of the SCID mice. […] Each value is a mean of five animals ±SD.

Test [2] has as its system H460 and HCT116^+/+ cells. Description: Cell growth inhibition (WST), statements covering both p53-containing lines. In kind it is cell-based, human.
Excerpt: as §1

Test [3] has as its system H1299 cells and HCT116^−/− cells. Description: Cell growth inhibition (WST), statements covering p53-null lines.
Method: The EC50 values for their ability to inhibit cell growth were calculated through serial dilution of their concentrations with the highest concentration at 50 μM.
Human lung carcinoma H460, non-small-cell lung cancer H1299, human colon cancer HCT116 (HCT116^+/+), and human embryonic fibroblast WI-38 were bought from the American Type Culture Collection (ATCC). […] Those cell lines were cultured in Dulbecco's modified Eagle's medium supplemented with 10% fetal bovine serum, 100 U per mL penicillin, and 100 U per mL streptomycin. Compounds were dissolved in DMSO and diluted directly into the medium to the indicated concentrations; 0.1% DMSO was used as a control.
Cell Viability Assay. To assess cell growth, the cell counting kit (Dojindo Molecular Technologies Inc., Gaithersburg, Md.) was used according to manufacturer's instructions. Cell suspensions were seeded at 3,000 cells per well in 96-well culture plates and incubated overnight at 37° C. Compounds were added into the plates and incubated at 37° C. for 72 hrs. Cell growth inhibition was determined by adding WST-8 at a final concentration of 10% to each well, and the absorbance of the samples was measured at 450 nm using a Microplate Reader (Molecular Device, SpecrtraMax M5^e). EC50 values were determined by the Hill equation using Igor 4.01 (Lake Oswego, Oreg., USA).
A further test relates to H460. Briefly: Cell viability assay (3-day WST-8), H460. The test is classed as cell-based, human. The conditions noted are these: for EC90: calculated from EC50 and Hill slope, read-out: EC90 cell growth inhibition.
Another test concerns H1299. Description: Cell viability assay (3-day WST-8), H1299 (p53 null). The conditions noted are these: Homo sapiens.
Test [4] relates to xenograft tumors derived from p53-harboring lung cancer H460 and colon cancer HCT116^+/+ cells. The conditions noted are these: background, earlier work; cited from earlier work.
For a further test, the system named is HCT116^−/−. Description: Cell viability assay (3-day WST-8), HCT116^−/− (p53 null). The conditions noted are these: Homo sapiens.
The mark [5] stands for this setting: HCT116+/+ cells, values of b177 (differ from Table 1), read-out: EC50 growth inhibition.
Setting [6] is: HCT116^+/+, p53 wild type, calculated from EC50 and Hill slope, read-out: EC90 cell growth inhibition.
[7] abbreviates: Homo sapiens, NCI-H460, H460, p53 wild type.

For the compound `CCC(Sc1nnc2c(n1)[nH]c1ccccc12)C(=O)N1c2ccccc2Cc2ccccc21` (centres unmarked) [Compound 8, 2-((5H-[1,2,4]triazino[5,6-b]indol-3-yl)thio)-1-(acridin-10(9H)-yl)butan-1-one], the “p53 induction at 0.5 μM” value with p53 (IB, 0.5 μM) was “drastically induced p53”. Moreover, in the test on p53 (synthetic analogs, IB, 0.5, 2, 10 μM, compared to INZ), the “p53 induction / activation” value was “more potent in p53 activation than their parental compound INZ”. The “EC90 fold lower than INZ” value was 5 fold in the test with HCT116^+/+ (HCT116+/+ cells, b177); 3-10 fold in [2] (H460 and HCT116^+/+, versus INZ). The “fold higher potency than INZ in growth inhibition” value was “more than 2 fold” in the test with HCT116^+/+ (HCT116^+/+); “over 2 fold” with HCT116^+/+ (HCT116^+/+, listed as INZ-14); “more than 2 fold” in the test with H460 (H460, versus INZ). The EC90 was ~10 µM in the test with HCT116^+/+ (HCT116+/+ cells, b177, read-out: EC90); 10 µM with HCT116^+/+ (setting [6]); 3.5 to 10 µM in test [2] (Homo sapiens, H460 and HCT116^+/+ together, read-out: EC90 values, range over H460 and HCT116^+/+); 3.5 µM in the test with H460 (setting [7]). In addition, the EC50 with HCT116^+/+ (setting [5]) came out at 1.41 µM. Also, in [1], the “bioactivity against orthotopic lung cancers (tumor burden by BLI, words)” value is “exhibited highly promising bioactivity against orthotopic lung cancers”. The “inhibitory activity in p53-null cells” value in [3] (in contrast to p53-containing cells) is listed as “much less effective”.

In the case of `CCC(Sc1nnc2c(n1)[nH]c1ccccc12)C(=O)N1c2ccccc2Sc2ccccc21` (centres unmarked) [INZ, 2-((5H-[1,2,4]triazino[5,6-b]indole-3yl)thio)-1-(10H-phenothiazin-10-yl)butan-1-one, reference compound], the EC50 in the test with HCT116^+/+ (setting [5]) is 3.52 µM; in the test on HCT116^+/+ (HCT116^+/+, p53 wild type, 72 hrs, read-out: EC50 cell growth inhibition) it was 2.7 ± 0.3 µM; in the test with H1299 (NCI-H1299, 72 h, read-out: EC50 cell growth inhibition) it was 11.6 ± 3.4 µM; in the test with H460 (Homo sapiens, NCI-H460, H460, p53 wild type, 72 hrs, average of triplicates, read-out: EC50 cell growth inhibition), 7.7 ± 1.1 µM; in the test on HCT116^−/− (HCT-116, 72 h, read-out: EC50 cell growth inhibition), 13.3 ± 2.4 µM. For the same compound, the EC90 with HCT116^+/+ (setting [6]) was 30.5 µM; in the test with H1299 (NCI-H1299, read-out: EC90 cell growth inhibition), 217 µM; in the test with H460 (setting [7]), ~39.9 µM; with HCT116^−/− (HCT-116, read-out: EC90 cell growth inhibition) it was 213 µM. Further, the “growth of xenograft tumors” value in test [4] is listed as “repressed the growth of xenograft tumors”. For the same compound, the “EC50 fold greater in p53-null cells than in p53-containing cell lines” value in [3] (p53-null versus p53-containing) came out at 1.5 fold. For the same compound, the “EC90 fold greater in p53-null cells than in p53-containing cell lines” value in test [3] (p53-null versus p53-containing) is 5-7 fold.
